We go through 13 compounds from article PMC9051119 (RSC Advances, 2020).

For data set [1] the following is noted: ref unpublished data, cited from earlier work.
The conditions of data set [2]: weakly basic APIs; cited from earlier work.
A short description of data set [3]: Equilibrium solubility in model lipid-based formulations. The conditions noted are these: for Miscibility in MC-SEDDS (MCF) / Miscibility in LC-SEDDS (LCF): result in words; for Miscibility in LC-SEDDS (LCF) / Solubility in LC-SEDDS: long chain SEDDS.
Data set [4] is described as follows: Long term storage stability. The conditions noted are these: >6 months at −20 °C.

Usually pKa stands for the pH at which an ionisable group is half protonated.

Structures are written as SMILES. Where only a bound is given, the exact number is not on record here.

As for `C(=Cc1ccccc1)CN1CCN(C(c2ccccc2)c2ccccc2)CC1.CCCCC(CC)COC(=O)CC(C(=O)OCC(CC)CCCC)S(=O)(=O)O` [Cinnarizine docusate], the “Miscibility in LC-SEDDS” value in data set [1] (long chain SEDDS) is reported as “miscible”. Also, the “Miscibility in MC-SEDDS” value in data set [1] (medium chain SEDDS) is “miscible”.

As to `C(=C\c1ccccc1)/CN1CCN(C(c2ccccc2)c2ccccc2)CC1` [Compound 1, cinnarizine], the pKa in data set [2] is given as over 8.

Regarding `C(=C\c1ccccc1)/CN1CCN(C(c2ccccc2)c2ccccc2)CC1` [Compound 1b, cinnarizine], the “Miscibility in MC-SEDDS (MCF)” value in data set [3] (medium chain SEDDS) was “miscible”.

In the case of `C(=C\c1ccccc1)/CN1CCN(C(c2ccccc2)c2ccccc2)CC1` [Compound 1c, cinnarizine], in data set [3] (medium chain SEDDS), the “Miscibility in MC-SEDDS (MCF)” value was “miscible”.

In the case of `C(=C\c1ccccc1)/CN1CCN(C(c2ccccc2)c2ccccc2)CC1` [Compound 1d, cinnarizine], the “Miscibility in LC-SEDDS (LCF)” value in data set [3] is recorded as “miscible”. Besides, the “Miscibility in MC-SEDDS (MCF)” value in data set [3] (medium chain SEDDS) is reported as “miscible”.

For `C(=C\c1ccccc1)/CN1CCN(C(c2ccccc2)c2ccccc2)CC1` [Compound 1g, cinnarizine], the “Solubility in LC-SEDDS” value in data set [3] (value of the main text) came out at 17 mg/g.

In the case of `C(=C\c1ccccc1)/CN1CCN(C(c2ccccc2)c2ccccc2)CC1` [Compound 1h, cinnarizine], in data set [4], the “Crystallization after long term storage” value is given as “showed signs of crystallization”.

As for `C(=C\c1ccccc1)/CN1CCN(C(c2ccccc2)c2ccccc2)CC1` [Compound 1i, cinnarizine], the “Miscibility in MC-SEDDS (MCF)” value in data set [3] (medium chain SEDDS) was “miscible”.

Regarding `C(=C\c1ccccc1)/CN1CCN(C(c2ccccc2)c2ccccc2)CC1` [Compound 1j, cinnarizine], the “Miscibility in MC-SEDDS (MCF)” value in data set [3] (medium chain SEDDS) is given as “miscible”.

With `C(=C\c1ccccc1)/CN1CCN(C(c2ccccc2)c2ccccc2)CC1` [Compound 1k, cinnarizine], in data set [3], the “Miscibility in LC-SEDDS (LCF)” value is “miscible”. Moreover, the “Miscibility in MC-SEDDS (MCF)” value in data set [3] (medium chain SEDDS) was “miscible”.

Regarding `CCCCN(CCCC)CC(O)c1cc(Cl)cc2c1-c1ccc(Cl)cc1/C2=C/c1ccc(Cl)cc1` (stereo not shown) [Compound 2, lumefantrine], the pKa in data set [2] is recorded as over 8.

In the case of `CCCCN(CCCC)CC(O)c1cc(Cl)cc2c1-c1ccc(Cl)cc1/C2=C/c1ccc(Cl)cc1` (stereo not shown) [Compound 2h, lumefantrine], the “LBF solubility enhancement compared to the free base” value in data set [3] (compared to the free base form) is “up to 18 fold”. Moreover, the “Miscibility in LC-SEDDS (LCF)” value in data set [3] is “miscible”. Further, the “Miscibility in MC-SEDDS (MCF)” value in data set [3] (medium chain SEDDS) is listed as “miscible”.

Take `CCCCN(CCCC)CC(O)c1cc(Cl)cc2c1-c1ccc(Cl)cc1/C2=C/c1ccc(Cl)cc1` (stereo not shown) [Compound 2k, lumefantrine]: the “Solubility in LC-SEDDS” value in data set [3] (value of the main text) is 53 mg/g. In data set [3] (medium chain SEDDS, value of the main text), the “Solubility in MC-SEDDS” value is 66 mg/g.
